Laboratory results as given in ChEMBL document CHEMBL3991601, “The target landscape of clinical kinase drugs” (Science, 2017).
Activity calls are given as the source filed them.

What was measured:
[1] = target: T1, Cysteine--tRNA ligase, cytoplasmic (Homo sapiens, UniProt P49589)
T1 sequence (P49589 whole entry): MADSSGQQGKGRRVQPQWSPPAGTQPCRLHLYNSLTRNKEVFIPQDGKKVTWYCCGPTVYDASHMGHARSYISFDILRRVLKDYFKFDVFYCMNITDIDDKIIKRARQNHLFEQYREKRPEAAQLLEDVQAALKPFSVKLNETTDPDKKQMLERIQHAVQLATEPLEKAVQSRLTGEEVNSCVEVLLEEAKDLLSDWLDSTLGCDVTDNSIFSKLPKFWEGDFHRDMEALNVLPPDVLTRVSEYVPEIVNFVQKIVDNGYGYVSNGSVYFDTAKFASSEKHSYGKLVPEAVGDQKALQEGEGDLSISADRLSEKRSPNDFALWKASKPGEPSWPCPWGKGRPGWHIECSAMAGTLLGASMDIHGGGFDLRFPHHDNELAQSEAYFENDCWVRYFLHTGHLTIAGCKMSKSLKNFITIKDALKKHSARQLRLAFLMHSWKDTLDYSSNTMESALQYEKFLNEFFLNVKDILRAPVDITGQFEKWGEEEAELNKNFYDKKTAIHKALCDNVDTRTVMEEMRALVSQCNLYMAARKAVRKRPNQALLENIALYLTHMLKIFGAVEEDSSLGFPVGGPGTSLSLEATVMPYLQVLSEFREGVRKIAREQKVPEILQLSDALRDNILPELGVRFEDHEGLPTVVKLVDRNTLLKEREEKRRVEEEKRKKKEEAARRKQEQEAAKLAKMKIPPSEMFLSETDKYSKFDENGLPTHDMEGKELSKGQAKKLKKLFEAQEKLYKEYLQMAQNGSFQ

[2] = target: Cyclin-dependent kinase 12 (Homo sapiens, UniProt Q9NYV4)
[3] = target: Cyclin-dependent kinase 4 (Homo sapiens, UniProt P11802)
Chain of Cyclin-dependent kinase 4 (P11802 whole entry): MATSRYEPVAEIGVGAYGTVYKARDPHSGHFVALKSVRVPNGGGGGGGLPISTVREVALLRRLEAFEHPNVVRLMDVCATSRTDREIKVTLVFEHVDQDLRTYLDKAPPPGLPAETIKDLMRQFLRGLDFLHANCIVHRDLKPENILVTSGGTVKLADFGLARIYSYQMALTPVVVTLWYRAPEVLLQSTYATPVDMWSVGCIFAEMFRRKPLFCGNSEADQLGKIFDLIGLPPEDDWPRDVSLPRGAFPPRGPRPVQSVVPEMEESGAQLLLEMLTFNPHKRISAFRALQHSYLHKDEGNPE

[4] = target: T2, Serine/threonine-protein kinase Chk1 (Homo sapiens, UniProt O14757)
T2 sequence (O14757 whole entry): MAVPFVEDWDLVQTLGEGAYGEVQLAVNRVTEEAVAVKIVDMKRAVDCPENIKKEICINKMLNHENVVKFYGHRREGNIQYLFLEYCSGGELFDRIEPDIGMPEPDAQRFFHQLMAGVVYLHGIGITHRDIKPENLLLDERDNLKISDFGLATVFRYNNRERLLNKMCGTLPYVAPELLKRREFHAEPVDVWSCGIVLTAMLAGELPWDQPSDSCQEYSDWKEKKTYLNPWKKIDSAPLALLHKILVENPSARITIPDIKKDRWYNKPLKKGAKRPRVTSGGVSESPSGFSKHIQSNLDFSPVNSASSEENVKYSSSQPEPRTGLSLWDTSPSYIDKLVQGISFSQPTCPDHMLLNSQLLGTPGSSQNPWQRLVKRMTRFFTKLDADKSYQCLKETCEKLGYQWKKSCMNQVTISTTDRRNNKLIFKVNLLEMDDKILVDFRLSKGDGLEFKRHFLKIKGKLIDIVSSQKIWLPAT

[5] = target: Casein kinase I isoform delta (Homo sapiens, UniProt P48730)
[6] = target: T3, Isoleucine--tRNA ligase, mitochondrial (Homo sapiens, UniProt Q9NSE4)
T3 sequence (Q9NSE4 whole entry): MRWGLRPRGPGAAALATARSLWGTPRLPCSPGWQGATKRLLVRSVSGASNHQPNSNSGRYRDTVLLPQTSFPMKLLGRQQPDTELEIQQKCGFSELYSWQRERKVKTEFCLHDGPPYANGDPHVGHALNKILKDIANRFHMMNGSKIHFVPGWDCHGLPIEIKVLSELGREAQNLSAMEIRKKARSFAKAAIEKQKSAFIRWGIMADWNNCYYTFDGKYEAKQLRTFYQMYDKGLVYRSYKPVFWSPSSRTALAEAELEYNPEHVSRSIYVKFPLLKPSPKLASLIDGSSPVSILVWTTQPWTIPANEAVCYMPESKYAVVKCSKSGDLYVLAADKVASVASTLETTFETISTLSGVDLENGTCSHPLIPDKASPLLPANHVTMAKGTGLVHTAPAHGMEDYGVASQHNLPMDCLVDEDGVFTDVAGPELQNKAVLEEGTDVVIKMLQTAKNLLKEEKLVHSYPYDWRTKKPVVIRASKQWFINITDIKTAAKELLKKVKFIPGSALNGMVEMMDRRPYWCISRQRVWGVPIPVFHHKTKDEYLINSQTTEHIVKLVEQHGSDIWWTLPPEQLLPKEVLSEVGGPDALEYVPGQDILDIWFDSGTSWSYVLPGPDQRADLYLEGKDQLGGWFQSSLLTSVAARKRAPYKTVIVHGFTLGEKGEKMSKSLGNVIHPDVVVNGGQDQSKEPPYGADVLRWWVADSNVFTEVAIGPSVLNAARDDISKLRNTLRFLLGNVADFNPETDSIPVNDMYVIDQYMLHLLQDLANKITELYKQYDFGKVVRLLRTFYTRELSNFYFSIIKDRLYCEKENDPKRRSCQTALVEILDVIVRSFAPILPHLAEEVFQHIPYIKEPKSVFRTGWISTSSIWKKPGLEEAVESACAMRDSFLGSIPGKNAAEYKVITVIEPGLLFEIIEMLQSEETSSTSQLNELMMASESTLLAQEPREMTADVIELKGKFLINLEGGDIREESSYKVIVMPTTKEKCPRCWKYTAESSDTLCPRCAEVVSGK

Misshapen-like kinase 1 = Misshapen-like kinase 1 (Homo sapiens, UniProt Q8N4C8)
[7] = target: Serine/threonine-protein kinase PAK 2 (Homo sapiens, UniProt Q13177)
Chain of Serine/threonine-protein kinase PAK 2 (Q13177 whole entry, the tested form may be a part): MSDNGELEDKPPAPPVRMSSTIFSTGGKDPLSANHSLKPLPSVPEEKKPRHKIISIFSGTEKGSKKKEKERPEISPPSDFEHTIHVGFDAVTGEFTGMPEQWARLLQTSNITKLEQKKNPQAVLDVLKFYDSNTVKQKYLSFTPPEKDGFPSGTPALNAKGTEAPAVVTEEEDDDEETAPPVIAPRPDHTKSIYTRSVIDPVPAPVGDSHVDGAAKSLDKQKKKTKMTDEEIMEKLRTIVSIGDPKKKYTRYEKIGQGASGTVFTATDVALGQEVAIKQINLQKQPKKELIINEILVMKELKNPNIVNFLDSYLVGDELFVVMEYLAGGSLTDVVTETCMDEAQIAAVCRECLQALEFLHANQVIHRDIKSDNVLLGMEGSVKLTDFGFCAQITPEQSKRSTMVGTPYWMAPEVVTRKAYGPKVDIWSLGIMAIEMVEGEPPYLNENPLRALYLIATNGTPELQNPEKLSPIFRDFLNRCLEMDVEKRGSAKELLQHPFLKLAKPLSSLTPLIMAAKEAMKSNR

[8] = target: PAS domain-containing serine/threonine-protein kinase (Homo sapiens, UniProt Q96RG2)
Chain of PAS domain-containing serine/threonine-protein kinase (Q96RG2 whole entry, the tested form may be a part): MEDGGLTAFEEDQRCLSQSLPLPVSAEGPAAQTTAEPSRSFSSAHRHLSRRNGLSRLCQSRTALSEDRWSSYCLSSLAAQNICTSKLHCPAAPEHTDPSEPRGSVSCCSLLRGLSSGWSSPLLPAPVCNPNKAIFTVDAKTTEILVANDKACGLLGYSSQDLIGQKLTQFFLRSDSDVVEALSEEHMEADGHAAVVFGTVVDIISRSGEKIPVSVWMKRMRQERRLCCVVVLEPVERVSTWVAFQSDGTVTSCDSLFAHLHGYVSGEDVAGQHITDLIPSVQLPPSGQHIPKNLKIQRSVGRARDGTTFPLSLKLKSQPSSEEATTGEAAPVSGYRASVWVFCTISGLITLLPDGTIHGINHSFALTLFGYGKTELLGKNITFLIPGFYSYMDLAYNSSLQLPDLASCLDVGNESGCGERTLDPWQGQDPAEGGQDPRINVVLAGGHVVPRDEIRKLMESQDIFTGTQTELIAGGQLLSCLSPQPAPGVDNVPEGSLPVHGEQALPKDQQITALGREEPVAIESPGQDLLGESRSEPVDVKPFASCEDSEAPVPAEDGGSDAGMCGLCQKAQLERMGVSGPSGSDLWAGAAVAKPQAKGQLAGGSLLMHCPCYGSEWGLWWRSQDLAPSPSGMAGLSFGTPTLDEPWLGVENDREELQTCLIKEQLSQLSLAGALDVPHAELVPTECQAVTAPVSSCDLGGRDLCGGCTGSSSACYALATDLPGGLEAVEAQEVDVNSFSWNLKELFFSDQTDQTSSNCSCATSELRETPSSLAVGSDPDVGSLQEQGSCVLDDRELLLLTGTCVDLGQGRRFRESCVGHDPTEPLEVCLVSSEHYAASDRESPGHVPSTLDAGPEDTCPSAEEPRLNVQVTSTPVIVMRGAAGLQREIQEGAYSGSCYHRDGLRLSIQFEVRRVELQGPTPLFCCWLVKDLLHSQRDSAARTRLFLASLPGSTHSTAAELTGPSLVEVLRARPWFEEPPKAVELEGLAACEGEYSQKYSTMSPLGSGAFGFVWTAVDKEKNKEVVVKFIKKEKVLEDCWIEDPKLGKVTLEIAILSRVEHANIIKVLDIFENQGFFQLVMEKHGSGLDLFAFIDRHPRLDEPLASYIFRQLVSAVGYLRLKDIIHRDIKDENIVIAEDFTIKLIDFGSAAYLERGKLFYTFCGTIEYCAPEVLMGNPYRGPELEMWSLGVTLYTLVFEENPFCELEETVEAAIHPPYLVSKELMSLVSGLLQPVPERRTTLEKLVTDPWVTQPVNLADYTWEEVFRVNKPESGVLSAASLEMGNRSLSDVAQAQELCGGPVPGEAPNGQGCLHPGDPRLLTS

[9] = target: Ribosomal protein S6 kinase alpha-1 (Homo sapiens, UniProt Q15418)
Chain of Ribosomal protein S6 kinase alpha-1 (Q15418 whole entry): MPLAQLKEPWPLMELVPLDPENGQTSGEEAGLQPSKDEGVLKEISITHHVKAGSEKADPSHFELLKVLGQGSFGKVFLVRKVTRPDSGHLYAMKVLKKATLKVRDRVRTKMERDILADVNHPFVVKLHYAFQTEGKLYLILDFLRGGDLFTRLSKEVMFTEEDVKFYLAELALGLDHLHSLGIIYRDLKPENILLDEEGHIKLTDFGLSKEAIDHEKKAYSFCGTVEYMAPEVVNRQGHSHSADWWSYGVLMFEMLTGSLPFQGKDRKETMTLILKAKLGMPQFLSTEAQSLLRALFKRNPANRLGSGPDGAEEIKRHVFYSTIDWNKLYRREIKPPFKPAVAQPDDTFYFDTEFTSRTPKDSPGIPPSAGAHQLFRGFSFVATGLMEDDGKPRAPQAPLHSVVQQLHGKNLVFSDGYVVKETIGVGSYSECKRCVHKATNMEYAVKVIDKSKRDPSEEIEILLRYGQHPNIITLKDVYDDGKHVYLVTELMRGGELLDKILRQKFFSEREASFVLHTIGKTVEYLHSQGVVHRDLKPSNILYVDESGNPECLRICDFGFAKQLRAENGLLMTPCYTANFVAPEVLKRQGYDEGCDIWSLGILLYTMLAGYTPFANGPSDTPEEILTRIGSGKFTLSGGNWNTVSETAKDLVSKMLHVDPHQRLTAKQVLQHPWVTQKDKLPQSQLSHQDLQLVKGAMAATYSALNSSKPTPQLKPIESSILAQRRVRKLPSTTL

[10] = target: Ribosomal protein S6 kinase alpha-4 (Homo sapiens, UniProt O75676)
Chain of Ribosomal protein S6 kinase alpha-4 (O75676 whole entry): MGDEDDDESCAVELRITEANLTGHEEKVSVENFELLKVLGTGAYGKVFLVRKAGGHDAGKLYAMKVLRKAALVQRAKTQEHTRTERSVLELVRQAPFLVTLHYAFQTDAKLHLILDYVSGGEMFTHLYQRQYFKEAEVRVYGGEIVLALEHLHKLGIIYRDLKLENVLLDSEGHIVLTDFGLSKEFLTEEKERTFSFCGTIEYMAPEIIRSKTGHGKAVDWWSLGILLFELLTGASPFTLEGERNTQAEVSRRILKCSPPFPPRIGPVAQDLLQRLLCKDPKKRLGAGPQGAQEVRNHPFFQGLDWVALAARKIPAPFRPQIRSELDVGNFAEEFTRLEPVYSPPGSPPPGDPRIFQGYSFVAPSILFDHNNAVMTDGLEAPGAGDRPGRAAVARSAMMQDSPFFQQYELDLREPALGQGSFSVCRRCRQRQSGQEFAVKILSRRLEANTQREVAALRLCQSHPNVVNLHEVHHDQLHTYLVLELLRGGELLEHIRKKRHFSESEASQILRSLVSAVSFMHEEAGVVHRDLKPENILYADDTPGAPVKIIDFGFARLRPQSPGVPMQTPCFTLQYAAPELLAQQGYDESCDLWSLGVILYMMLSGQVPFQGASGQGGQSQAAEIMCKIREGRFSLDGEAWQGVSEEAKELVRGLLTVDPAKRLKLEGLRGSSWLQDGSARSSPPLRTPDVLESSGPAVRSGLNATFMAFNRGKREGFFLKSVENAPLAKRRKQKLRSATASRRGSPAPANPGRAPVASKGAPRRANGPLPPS

[11] = target: Serine/threonine-protein kinase 24 (Homo sapiens, UniProt Q9Y6E0)
Chain of Serine/threonine-protein kinase 24 (Q9Y6E0 whole entry): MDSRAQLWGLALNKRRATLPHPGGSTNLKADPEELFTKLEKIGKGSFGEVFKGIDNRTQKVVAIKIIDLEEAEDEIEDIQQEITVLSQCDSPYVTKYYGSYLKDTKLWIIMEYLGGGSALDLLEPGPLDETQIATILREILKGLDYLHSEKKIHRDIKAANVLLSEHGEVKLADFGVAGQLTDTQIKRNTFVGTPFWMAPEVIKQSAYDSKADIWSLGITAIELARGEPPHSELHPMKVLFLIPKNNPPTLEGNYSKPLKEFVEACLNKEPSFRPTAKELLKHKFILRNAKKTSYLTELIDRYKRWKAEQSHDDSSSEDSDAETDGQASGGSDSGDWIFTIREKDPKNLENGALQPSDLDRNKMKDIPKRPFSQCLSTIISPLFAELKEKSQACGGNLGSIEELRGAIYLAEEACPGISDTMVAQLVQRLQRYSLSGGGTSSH

[12] = target: Dual specificity testis-specific protein kinase 2 (Homo sapiens, UniProt Q96S53)
Chain of Dual specificity testis-specific protein kinase 2 (Q96S53 whole entry): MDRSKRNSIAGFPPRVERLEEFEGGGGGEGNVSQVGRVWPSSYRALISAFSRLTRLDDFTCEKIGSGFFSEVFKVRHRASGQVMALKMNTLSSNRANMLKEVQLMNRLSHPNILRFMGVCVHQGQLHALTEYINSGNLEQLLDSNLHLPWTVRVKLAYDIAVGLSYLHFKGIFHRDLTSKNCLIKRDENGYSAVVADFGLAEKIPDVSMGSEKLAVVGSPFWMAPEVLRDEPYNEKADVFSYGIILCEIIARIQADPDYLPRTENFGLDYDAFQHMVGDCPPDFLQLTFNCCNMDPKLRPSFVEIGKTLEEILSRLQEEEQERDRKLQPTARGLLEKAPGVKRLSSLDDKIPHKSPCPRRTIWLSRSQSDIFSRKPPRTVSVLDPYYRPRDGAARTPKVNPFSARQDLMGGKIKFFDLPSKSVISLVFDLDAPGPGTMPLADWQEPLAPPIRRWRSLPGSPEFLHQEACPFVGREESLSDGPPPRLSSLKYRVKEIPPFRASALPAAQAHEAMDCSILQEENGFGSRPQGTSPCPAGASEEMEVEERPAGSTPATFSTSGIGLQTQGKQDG

Measured: Kd
Also: in the data inactive means no Kd found up to 30 µM.

CO[C@H]1C[C@@H]2CC[C@@H](C)[C@@](O)(O2)C(=O)C(=O)N2CCCC[C@H]2C(=O)O[C@H]([C@H](C)C[C@@H]2CC[C@@H](O)[C@H](OC)C2)CC(=O)[C@H](C)/C=C(\C)[C@@H](O)[C@@H](OC)C(=O)[C@H](C)C[C@H](C)/C=C/C=C/C=C/1C [SIROLIMUS]
inactive: [1] > 30 µM | [2] > 30 µM | [3] > 30 µM | [4] > 30 µM | [5] > 30 µM | [6] > 30 µM | Misshapen-like kinase 1 > 30 µM | [7] > 30 µM | [8] > 30 µM | [9] > 30 µM | [10] > 30 µM | [11] > 30 µM | [12] > 30 µM

COc1cc2c(Nc3ccc(Cl)c(Cl)c3F)ncnc2cc1OC[C@@H]1C[C@@H]2CN(C)C[C@@H]2C1 [TESEVATINIB]
inactive: [1] > 30 µM | [2] > 30 µM | [3] > 30 µM | [4] > 30 µM | [5] > 30 µM | [6] > 30 µM | Misshapen-like kinase 1 > 30 µM | [7] > 30 µM | [8] > 30 µM | [9] > 30 µM | [10] > 30 µM | [11] > 30 µM | [12] > 30 µM

O=C(Cc1ccc(-c2ccc(OCCN3CCOCC3)cc2)cn1)NCc1ccccc1 [TIRBANIBULIN]
inactive: [1] > 30 µM | [2] > 30 µM | [3] > 30 µM | [4] > 30 µM | [5] > 30 µM | [6] > 30 µM | Misshapen-like kinase 1 > 30 µM | [7] > 30 µM | [8] > 30 µM | [9] > 30 µM | [10] > 30 µM | [11] > 30 µM | [12] > 30 µM

Cc1cc(Nc2ncnc3ccc(NC4=NC(C)(C)CO4)cc23)ccc1Oc1ccn2ncnc2c1 [TUCATINIB]
inactive: [1] > 30 µM | [2] > 30 µM | [3] > 30 µM | [4] > 30 µM | [5] > 30 µM | [6] > 30 µM | Misshapen-like kinase 1 > 30 µM | [7] > 30 µM | [8] > 30 µM | [9] > 30 µM | [10] > 30 µM | [11] > 30 µM | [12] > 30 µM
